Where “and” joins values, the source holds several entries; their conditions need not be identical. Equal values may be shown once. Read-outs that look alike come from different tables or passages of the source.
How the values were obtained:
α1a-AR = biological target: T1, α1a-AR (Homo sapiens, UniProt P35348); assay: α1-Adrenergic Receptor Binding Assay, 125I-HEAT radio-ligand binding, transfected COS-7 cell membranes, α1a subtype; conditions: COS-7 membranes
T1 construct: expressed in transfected cells; host or cells: COS-7 cells (African Green monkey kidney), membranes
T1 sequence (P35348 1-466): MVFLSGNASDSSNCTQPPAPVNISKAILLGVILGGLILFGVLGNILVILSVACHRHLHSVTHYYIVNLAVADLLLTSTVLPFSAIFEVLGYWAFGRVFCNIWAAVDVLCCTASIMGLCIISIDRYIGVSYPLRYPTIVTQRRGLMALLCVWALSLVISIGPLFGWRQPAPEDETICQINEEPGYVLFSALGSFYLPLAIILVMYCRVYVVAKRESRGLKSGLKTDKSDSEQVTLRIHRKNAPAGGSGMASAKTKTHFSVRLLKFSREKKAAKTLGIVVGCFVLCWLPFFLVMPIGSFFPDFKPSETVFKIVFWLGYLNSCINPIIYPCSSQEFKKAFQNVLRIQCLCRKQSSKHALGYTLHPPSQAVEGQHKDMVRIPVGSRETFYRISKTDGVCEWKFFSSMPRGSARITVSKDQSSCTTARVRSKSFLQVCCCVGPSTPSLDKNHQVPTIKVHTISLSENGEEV
How it was run: (§1)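 Competition binding of ¹²⁵I-HEAT ([…]) on membranes from COS-7 cells transfected with each human α1-AR subtype; membrane 0.5 ng/μL (α1a, α1b) or 13 ng/μL (α1d). Compound […] in half-log steps, triplicates, 1 hr at rt. Filtration and scintillation counting; Ki (nM) derived.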

α1b-AR = biological target: T2, α1b-AR (Homo sapiens, UniProt P35368); assay: α1-Adrenergic Receptor Binding Assay, 125I-HEAT radio-ligand binding, transfected COS-7 cell membranes, α1b subtype; conditions: COS-7 membranes
T2 construct: expressed in transfected cells; host or cells: COS-7 cells (African Green monkey kidney), membranes
T2 sequence (P35368 1-520): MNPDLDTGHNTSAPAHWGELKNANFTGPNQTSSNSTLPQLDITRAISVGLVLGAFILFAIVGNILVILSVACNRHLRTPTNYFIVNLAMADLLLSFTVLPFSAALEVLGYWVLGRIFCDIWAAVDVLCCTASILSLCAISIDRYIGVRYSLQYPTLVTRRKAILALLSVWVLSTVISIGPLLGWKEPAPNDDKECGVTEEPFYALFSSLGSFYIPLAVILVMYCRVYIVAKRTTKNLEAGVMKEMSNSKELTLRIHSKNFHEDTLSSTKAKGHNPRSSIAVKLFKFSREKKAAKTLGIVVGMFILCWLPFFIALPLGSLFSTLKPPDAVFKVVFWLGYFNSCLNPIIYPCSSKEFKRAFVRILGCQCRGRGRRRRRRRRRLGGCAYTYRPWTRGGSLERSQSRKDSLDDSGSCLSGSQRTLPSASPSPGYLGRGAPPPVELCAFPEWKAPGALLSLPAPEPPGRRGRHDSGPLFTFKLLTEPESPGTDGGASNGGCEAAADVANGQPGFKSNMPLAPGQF
How it was run: as §1

α1d-AR = biological target: T3, α1d-AR (Homo sapiens, UniProt P25100); assay: α1-Adrenergic Receptor Binding Assay, 125I-HEAT radio-ligand binding, transfected COS-7 cell membranes, α1d subtype; conditions: COS-7 membranes
T3 construct: expressed in transfected cells; host or cells: COS-7 cells (African Green monkey kidney), membranes
T3 sequence (P25100 1-572): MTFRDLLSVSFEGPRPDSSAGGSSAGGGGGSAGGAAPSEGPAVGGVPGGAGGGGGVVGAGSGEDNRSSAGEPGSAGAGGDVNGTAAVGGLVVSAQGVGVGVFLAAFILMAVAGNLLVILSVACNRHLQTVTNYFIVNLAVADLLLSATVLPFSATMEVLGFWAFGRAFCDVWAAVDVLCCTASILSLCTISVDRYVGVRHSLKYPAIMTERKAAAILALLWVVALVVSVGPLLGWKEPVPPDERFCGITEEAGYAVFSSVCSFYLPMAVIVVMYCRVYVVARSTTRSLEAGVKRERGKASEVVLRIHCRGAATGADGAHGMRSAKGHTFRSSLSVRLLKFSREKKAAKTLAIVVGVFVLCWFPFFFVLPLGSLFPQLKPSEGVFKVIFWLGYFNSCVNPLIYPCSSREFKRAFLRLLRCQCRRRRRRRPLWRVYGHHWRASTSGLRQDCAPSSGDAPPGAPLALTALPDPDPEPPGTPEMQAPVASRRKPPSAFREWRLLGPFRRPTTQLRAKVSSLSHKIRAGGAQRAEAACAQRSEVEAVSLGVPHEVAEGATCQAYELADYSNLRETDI
How it was run: as §1

[1] = as described in the article; cited from earlier work
D2 = D2 (Homo sapiens, UniProt P14416); conditions: as described in the article; cited from earlier work
5-HT1A site = biological target: T4, 5-HT1A site (Homo sapiens, UniProt P08908); conditions: as described in the article; cited from earlier work
T4 sequence (P08908 1-422): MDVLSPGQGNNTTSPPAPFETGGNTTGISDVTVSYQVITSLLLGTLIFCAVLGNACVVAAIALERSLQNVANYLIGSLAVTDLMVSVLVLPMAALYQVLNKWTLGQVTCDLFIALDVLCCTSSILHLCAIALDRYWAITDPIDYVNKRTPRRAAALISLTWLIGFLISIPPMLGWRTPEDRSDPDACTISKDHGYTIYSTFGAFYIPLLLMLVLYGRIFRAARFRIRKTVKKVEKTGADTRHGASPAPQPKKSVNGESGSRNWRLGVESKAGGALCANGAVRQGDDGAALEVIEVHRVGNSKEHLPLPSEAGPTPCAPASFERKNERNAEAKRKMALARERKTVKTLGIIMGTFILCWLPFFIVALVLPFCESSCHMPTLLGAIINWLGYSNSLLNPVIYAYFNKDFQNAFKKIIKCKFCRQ

[2] = average value, read-out: Alpha 1 Ki α1a (1) Average Value
[3] = individual values, read-out: Alpha 1 Ki α1a (2) Individual Values
[4] = average value, read-out: Alpha 1 Ki α1b (1) Average Value
[5] = individual values, read-out: Alpha 1 Ki α1b (2) Individual Values
[6] = average value, read-out: Alpha 1 Ki α1d (1) Average Value
[7] = individual values, read-out: Alpha 1 Ki α1d (2) Individual Values

Chain of D2 (P14416 whole entry): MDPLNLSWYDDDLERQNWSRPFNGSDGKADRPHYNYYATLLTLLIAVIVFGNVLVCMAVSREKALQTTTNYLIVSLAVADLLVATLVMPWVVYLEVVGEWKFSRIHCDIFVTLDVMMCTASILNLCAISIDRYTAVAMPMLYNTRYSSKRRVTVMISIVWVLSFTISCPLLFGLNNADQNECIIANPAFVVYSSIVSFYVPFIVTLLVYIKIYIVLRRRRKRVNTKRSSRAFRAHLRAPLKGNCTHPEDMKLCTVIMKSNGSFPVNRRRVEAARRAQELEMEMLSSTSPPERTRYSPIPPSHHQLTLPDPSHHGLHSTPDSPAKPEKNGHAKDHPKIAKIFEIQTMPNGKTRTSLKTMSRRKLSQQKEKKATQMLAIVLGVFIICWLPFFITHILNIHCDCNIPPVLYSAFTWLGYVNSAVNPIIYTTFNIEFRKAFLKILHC

SMILES | Ki (α1a-AR; [2]) | Ki (α1a-AR; [3]) | Ki (α1b-AR; [4]) | Ki (α1b-AR; [5]) | Ki (α1d-AR; [6]) | Ki (α1d-AR; [7]) | melting point | Conditioned Avoidance Response (CAR) activity [1] | D2 binding (D2) | binding affinity for the 5-HT1A site (5-HT1A site)
CC(C)Oc1ccccc1N1CCN(CC2CC(CO)=NO2)CC1 (stereo not shown) [compound 49, 4,5-dihydro-5-[[4-[2-(1-methylethoxy)phenyl]-1-piperazinyl]methyl]-3-isoxazolemethanol] |  |  |  |  |  |  |  | strong | lack | lack
CC(C)Oc1ccccc1N1CCN(CC2CC(CN3CCCCC3=O)=NO2)CC1.O.[O-][Cl+3]([O-])([O-])O (stereo not shown) [compound 50, 1-[[4,5-dihydro-5-[[4-[2-(1-methylethoxy)phenyl]-1-piperazinyl]methyl]-3-isoxazolyl]methyl]-piperidin-2-one perchlorate hydrate] |  |  |  |  |  |  |  | not so active |  | moderately high
CC(C)Oc1ccccc1N1CCN(CC2CC(CN3CCc4ccc(N)cc43)=NO2)CC1 (stereo not shown) [Compound 6, 1-{5-[4-(2-isopropoxy-phenyl)-piperazin-1-ylmethyl]-4,5-dihydro-isoxazol-3-ylmethyl}-2,3-dihydro-1H-indol-6-ylamine] | 4.3 nM | 4.3 nM | 410 nM | 410 nM | 46 nM | 46 nM |  |  |  | 
CC(C)Oc1ccccc1N1CCN(CC2CC(C(=O)N3CCC(C(=O)c4ccc(F)cc4)CC3)=NO2)CC1 (single isomer, unassigned) [Compound 40, [4-(4-fluoro-benzoyl)-piperidin-1-yl]-{(5S*)-5-[4-(2-isopropoxy-phenyl)-piperazin-1-ylmethyl]-4,5-dihydro-isoxazol-3-yl}-methanone] | 6.44 nM | 6.44 nM | 531 nM | 531 nM | 4.61 nM | 4.61 nM |  |  |  | 
CC(C)Oc1ccccc1N1CCN(CC2CC(CN3CCCCC3=O)=NO2)CC1 (single isomer, unassigned) [Compound 3, 1-{(5S*)-5-[4-(2-isopropoxy-phenyl)-piperazin-1-ylmethyl]-4,5-dihydro-isoxazol-3-ylmethyl}-piperidin-2-one] | 2.5 nM | 2.5 nM | 215 nM | 215 nM | 20 nM | 20 nM |  |  |  | 
CC(C)Oc1ccccc1N1CCN(CC2CC(C(=O)N3CCC(Oc4ccccc4)CC3)=NO2)CC1 (stereo not shown) [Compound 29, {5-[4-(2-isopropoxy-phenyl)-piperazin-1-ylmethyl]-4,5-dihydro-isoxazol-3-yl}-(4-phenoxy-piperidin-1-yl)-methanone] | 6.8 nM | 2.2 nM and 11.4 nM | 672 nM | 1010 nM and 333 nM | 8.2 nM | 5.6 nM and 10.8 nM |  |  |  | 

More lines, main results first:

Ki (α1a-AR; [2]) | Ki (α1a-AR; [3]) | Ki (α1b-AR; [4]) | Ki (α1b-AR; [5]) | Ki (α1d-AR; [6]) | Ki (α1d-AR; [7]) | melting point | SMILES | Conditioned Avoidance Response (CAR) activity [1] | D2 binding (D2) | binding affinity for the 5-HT1A site (5-HT1A site)
3.4 nM | 3.4 nM | 173 nM | 164 nM and 183 nM | 4.5 nM | 5.8 nM and 3.2 nM | 74 to 76 °C | CC(C)Oc1ccccc1N1CCN(CC2CC(C(=O)N3CCC(S(=O)(=O)c4ccccc4)CC3)=NO2)CC1 (stereo not shown) [Compound 30, (4-benzenesulfonyl-piperidin-1-yl)-{5-[4-(2-isopropoxy-phenyl)-piperazin-1-ylmethyl]-4,5-dihydro-isoxazol-3-yl}-methanone] |  |  | 
25 nM | 25 nM | 248 nM | 248 nM | 9.6 nM | 9.6 nM | 61 to 63 °C | CC(C)Oc1ccccc1N1CCN(CC2CC(C(=O)N3CCC(c4ccccc4)(c4ccccc4)CC3)=NO2)CC1 (stereo not shown) [Compound 31, (4,4-diphenyl-piperidin-1-yl)-{5-[4-(2-isopropoxy-phenyl)-piperazin-1-ylmethyl]-4,5-dihydro-isoxazol-3-yl}-methanone] |  |  | 
3 nM | 3 nM | 691 nM | 691 nM | 27.2 nM | 27.2 nM |  | CC(C)Oc1ccccc1N1CCN(CC2CC(C(=O)N3CCOCC3)=NO2)CC1 (stereo not shown) [Compound 28, {5-[4-(2-isopropoxy-phenyl)-piperazin-1-ylmethyl]-4,5-dihydro-isoxazol-3-yl}-morpholin-4-yl-methanone] |  |  | 

— patent US20080221116A1, “ISOXAZOLINE ALPHA 1a/1d ADRENORECEPTOR ANTAGONISTS” (priority 2006, published 2008)
